Literature values, collected in patent US12544371B2, “Methods and compositions for treating acute lung injury and acute respiratory distress syndrome” (CalciMedica, Inc., priority 2020, dated 2026).
Entries after “also recorded” stand apart in the source; their conditions may differ.

Key:
[1] = Gandhirajan et al. 2013; cited from earlier work
[2] = cited from earlier work
[3] = mice, cited from earlier work

Q: What does the source list for Cc1nnsc1C(=O)Nc1ccc(-n2nc(C(F)(F)F)cc2C(F)(F)F)cc1 [BTP2, N-(4-(3,5-bis(trifluoromethyl)-1H-pyrazol-1-yl)phenyl)-4-methyl-1,2,3-thiadiazole-5-carboxamide]?
A: infiltration of neutrophils into inflamed lung tissue [1]: reduced; inflammatory cytokines associated with lung inflammation [1]: down-regulated; vascular permeability in lungs [1]: decreased; endothelial lung dysfunction and lung inflammation ([2]; rat ventilator-induced lung injury): suppress; ventilator-induced lung injury ([2]; rats): attenuate; endothelial cell Ca2+ flux ([3]; delivered 2 hours after systemic endotoxin): striking reduction; measures of lung injury (endotoxin / lipopolysaccharide-induced) [3]: sharp decrease; also recorded: attenuate
